Measured values as given in US9951049B2, “Pyrazole linked benzimidazole conjugates and a process for preparation thereof” (Council of Scientific & Industrial Reseach, priority 2014, dated 2018).

Experiments:
HL-60(TB) = assay: NCI SRB screen, HL-60(TB); assay type: cell-based; settings: Homo sapiens, Leukemia, 48 h
SR = assay: NCI SRB screen, SR; settings: Homo sapiens, 48 h, read-out: GI50 values
M14 = assay: NCI SRB screen, M14; settings: Homo sapiens, M14, 48 h, read-out: GI50 values
HT29 = assay: NCI SRB screen, HT29; settings: Homo sapiens, HT-29, 48 h, read-out: GI50 values
A498 = assay: NCI SRB screen, A498; settings: Homo sapiens, A498, 48 h, read-out: GI50 values
ACHN = assay: NCI SRB screen, ACHN; settings: Homo sapiens, 48 h, read-out: GI50 values
MCF7 = assay: NCI SRB screen, MCF7; settings: Homo sapiens, MCF7, 48 h, read-out: GI50 values
786-0 = assay: NCI SRB screen, 786-0; settings: Homo sapiens, 786-0, 48 h, read-out: GI50 values
TK-10 = assay: NCI SRB screen, TK-10; settings: Homo sapiens, TK-10, 48 h, read-out: GI50 values
HCT-15 = assay: NCI SRB screen, HCT-15; settings: Homo sapiens, HCT-15, 48 h, read-out: GI50 values
SW-620 = assay: NCI SRB screen, SW-620; settings: Homo sapiens, SW-620, 48 h, read-out: GI50 values
SF-268 = assay: NCI SRB screen, SF-268; settings: Homo sapiens, SF-268, 48 h, read-out: GI50 values
SNB-19 = assay: NCI SRB screen, SNB-19; settings: Homo sapiens, SNB-19, 48 h, read-out: GI50 values
CAKI-1 = assay: NCI SRB screen, CAKI-1; settings: Homo sapiens, CAKI-1, 48 h, read-out: GI50 values
DU-145 = assay: NCI SRB screen, DU-145; settings: Homo sapiens, DU-145, 48 h, read-out: GI50 values
BT-549 = assay: NCI SRB screen, BT-549; settings: Homo sapiens, BT-549, 48 h, read-out: GI50 values
NCI-H23 = assay: NCI SRB screen, NCI-H23; settings: Homo sapiens, NCI-H23, 48 h, read-out: GI50 values
OVCAR-8 = assay: NCI SRB screen, OVCAR-8; settings: Homo sapiens, OVCAR-8, 48 h, read-out: GI50 values
SK-OV-3 = assay: NCI SRB screen, SK-OV-3; settings: Homo sapiens, SK-OV-3, 48 h, read-out: GI50 values
NCI-H460 = assay: NCI SRB screen, NCI-H460; settings: Homo sapiens, NCI-H460, 48 h, read-out: GI50 values
NCI-H522 = assay: NCI SRB screen, NCI-H522; settings: Homo sapiens, NCI-H522, 48 h, read-out: GI50 values, Non-small cell lung, NCI-H522
HCC-2998 = assay: NCI SRB screen, HCC-2998; settings: Homo sapiens, HCC 2998, 48 h, read-out: GI50 values
UACC-257 = assay: NCI SRB screen, UACC-257; settings: Homo sapiens, UACC-257, 48 h, read-out: GI50 values
RPMI-8226 = assay: NCI SRB screen, RPMI-8226; settings: Homo sapiens, RPMI-8226, 48 h, read-out: GI50 values
SK-MEL-28 = assay: NCI SRB screen, SK-MEL-28; settings: Homo sapiens, SK-MEL-28, 48 h, read-out: GI50 values
NCI/ADR-RES = assay: NCI SRB screen, NCI/ADR-RES; settings: Homo sapiens, 48 h, read-out: GI50 values
MDA-MB-231/ATCC = assay: NCI SRB screen, MDA-MB-231/ATCC; settings: Homo sapiens, MDA-MB-231, 48 h, read-out: GI50 values
[1] = tested on: Ovarian cancer cell lines; assay: NCI SRB screen, Ovarian panel average; settings: Homo sapiens, 48 h, read-out: Log10 GI50 (converted)
Melanoma cell lines = assay: NCI SRB screen, Melanoma panel average; settings: Homo sapiens, 48 h, read-out: Log10 GI50 (converted)
MDA-MB-435 [2] = assay: NCI SRB screen, MDA-MB-435 (Breast panel); settings: Homo sapiens, MDA-MB-435, 48 h, read-out: GI50 values
MDA-MB-435 [3] = assay: NCI SRB screen, MDA-MB-435 (Melanoma panel); settings: Homo sapiens, MDA-MB-435, 48 h, read-out: GI50 values
[4] = tested on: Non-small-cell lung cancer cell lines; assay: NCI SRB screen, Non-small-cell lung panel average; settings: Homo sapiens, 48 h, read-out: Log10 GI50 (converted)

Compound `COc1ccc2[nH]c(-c3cc(-c4cc(OC)c(OC)c(OC)c4)n[nH]3)nc2c1` [9f, 5-methoxy-2-(3-(3,4,5-trimethoxyphenyl)-1H-pyrazol-5-yl)-1H-benzo[d]imidazole] has a GI50 (HL-60(TB)) of 1690 nM, a GI50 (SR) of 1.74 µM and a GI50 (M14) of 1660 nM. It also gave a GI50 (HT29) of 2.76 µM, a GI50 (A498) of 2230 nM and a GI50 (ACHN) of 2630 nM. For the same compound, the GI50 (MCF7) was 2150 nM, the GI50 (786-0) was 2.92 µM and the GI50 (TK-10) was 2.21 µM. For the same compound, the GI50 (HCT-15) was 2500 nM, the GI50 (SW-620) was 2.89 µM and the GI50 (SF-268) was 2.74 µM. It also gave a GI50 (SNB-19) of 2.98 µM, a GI50 (CAKI-1) of 1790 nM and a GI50 (DU-145) of 2.29 µM. The GI50 (BT-549) was 890 nM, the GI50 (NCI-H23) was 1340 nM and the GI50 (OVCAR-8) was 1150 nM. For the same compound, the GI50 (SK-OV-3) was 2830 nM, the GI50 (NCI-H460) was 2.64 µM and the GI50 (NCI-H522) was 1210 nM. The GI50 (HCC-2998) was 3.03 µM, the GI50 (UACC-257) was 1670 nM and the GI50 (RPMI-8226) was 640 nM. It also gave a GI50 (SK-MEL-28) of 1900 nM, a GI50 (NCI/ADR-RES) of 2.91 µM and a GI50 (MDA-MB-231/ATCC) of 2.87 µM. It also gave a GI50 [1] of 2.04 µM, a GI50 (Melanoma cell lines) of 1320 nM and a GI50 (MDA-MB-435 [2]) of 380 nM. For the same compound, the GI50 (MDA-MB-435 [3]) was 1.49 µM and the GI50 [4] was 1480 nM.
`COc1cc(-c2cc(-c3nc4cc(Cl)ccc4[nH]3)[nH]n2)cc(OC)c1OC` [8f, 5-chloro-2-(3-(3,4,5-trimethoxyphenyl)-1H-pyrazol-5-yl)-1H-benzo[d]imidazole] gave a GI50 (HL-60(TB)) of 2490 nM, a GI50 (SR) of 3.32 µM and a GI50 (M14) of 2920 nM. It also gave a GI50 (HT29) of 4.14 µM, a GI50 (A498) of 2100 nM and a GI50 (ACHN) of 2960 nM. For the same compound, the GI50 (MCF7) was 2170 nM, the GI50 (786-0) was 5.32 µM and the GI50 (TK-10) was 3.52 µM. For the same compound, the GI50 (HCT-15) was 2900 nM, the GI50 (SW-620) was 4.99 µM and the GI50 (SF-268) was 3.6 µM. It also gave a GI50 (SNB-19) of 7.25 µM, a GI50 (CAKI-1) of 2800 nM and a GI50 (DU-145) of 3.27 µM. It also gave a GI50 (BT-549) of 2540 nM, a GI50 (NCI-H23) of 2730 nM and a GI50 (OVCAR-8) of 2260 nM. The GI50 (SK-OV-3) was 4470 nM, the GI50 (NCI-H460) was 3.65 µM and the GI50 (NCI-H522) was 1900 nM. The GI50 (HCC-2998) was 5.98 µM, the GI50 (UACC-257) was 2600 nM and the GI50 (RPMI-8226) was 1650 nM. The GI50 (SK-MEL-28) was 2420 nM, the GI50 (NCI/ADR-RES) was 3.16 µM and the GI50 (MDA-MB-231/ATCC) was 3.94 µM. For the same compound, the GI50 [1] was 3.55 µM, the GI50 (Melanoma cell lines) was 2450 nM and the GI50 (MDA-MB-435 [2]) was 2330 nM. The GI50 (MDA-MB-435 [3]) was 3.3 µM and the GI50 [4] was 2750 nM.
`COc1cc(-c2cc(-c3nc4cc(Cl)c(Cl)cc4[nH]3)[nH]n2)cc(OC)c1OC` [10f, 5,6-dichloro-2-(3-(3,4,5-trimethoxyphenyl)-1H-pyrazol-5-yl)-1H-benzo[d]imidazole] was tested, and the GI50 (HL-60(TB)) was 3340 nM, the GI50 (SR) was 3.89 µM and the GI50 (M14) was 3570 nM. The GI50 (HT29) was 3.42 µM, the GI50 (A498) was 4210 nM and the GI50 (ACHN) was 3540 nM. For the same compound, the GI50 (MCF7) was 2790 nM, the GI50 (786-0) was 4.09 µM and the GI50 (TK-10) was 4.61 µM. The GI50 (HCT-15) was 2890 nM, the GI50 (SW-620) was 4.47 µM and the GI50 (SF-268) was 3.95 µM. For the same compound, the GI50 (SNB-19) was 5.47 µM, the GI50 (CAKI-1) was 3810 nM and the GI50 (DU-145) was 4.16 µM. For the same compound, the GI50 (BT-549) was 2840 nM, the GI50 (NCI-H23) was 3400 nM and the GI50 (OVCAR-8) was 2510 nM. The GI50 (SK-OV-3) was 1730 nM, the GI50 (NCI-H460) was 3.33 µM and the GI50 (NCI-H522) was 2020 nM. It also gave a GI50 (HCC-2998) of 4.47 µM, a GI50 (UACC-257) of 3770 nM and a GI50 (RPMI-8226) of 1750 nM. It also gave a GI50 (SK-MEL-28) of 3070 nM, a GI50 (NCI/ADR-RES) of 3.25 µM and a GI50 (MDA-MB-231/ATCC) of 4.14 µM. For the same compound, the GI50 [1] was 4.47 µM, the GI50 (Melanoma cell lines) was 2820 nM and the GI50 (MDA-MB-435 [2]) was 3490 nM. The GI50 (MDA-MB-435 [3]) was 3.78 µM and the GI50 [4] was 2950 nM.
